Experiments:
[1] = tested on: patients with unstable angina/non Q-wave MI; test: Dose ranging study: secondary efficacy analysis (clinical endpoints); format: in vivo, human; conditions: for AMI / Death (not related to bleeding) / Death or AMI / Death or AMI or recurrent ischemia (Symptomatic) / Recurrent Ischemia (Symptomatic): first active injection to Day 9, per protocol including insufficient Mortara data
Experimental: (§1) A double blind, randomized, controlled dose ranging study was performed testing in parallel four fondaparinux sodium daily dose levels (2.5, 4.0, 8.0 and 12.0 mg) and a dose regimen of enoxaparin (1 mg/Kg bid=twice daily). Efficacy (composite parameter of death, AMI, recurrent ischemia) and safety of the respective doses of fondaparinux sodium were assessed in patients with unstable angina/non Q-wave MI. Further, safety and efficacy of the four different dose levels of fondaparinux sodium and enoxaparin 1 mg/Kg bid were compared.
(§2) The primary analysis for efficacy parameters was performed on the per protocol (PP) population. The choice of the patients to be excluded from PP population for efficacy analyses was defined before unblinding the trial.

[2] = tested on: patients with unstable angina/non Q-wave MI; test: Dose ranging study: safety analysis, adjudicated bleeding events; format: in vivo; conditions: for Any bleeding event n (%) / Major bleeding event n (%) / Minor bleeding event n (%): first active injection to Day 9, all treated patients
Experimental: as §1
The primary safety endpoint was the incidence of major bleeding from first active drug administration up to and including Day 9 as adjudicated by a blinded Central Adjudication Committee (CAC). The incidence of any major or minor bleeding was considered as a secondary safety endpoint.
(§3) The safety analysis was performed on the ‘all treated patients’ (ATP) population.

[3] = tested on: patients with unstable angina/non Q-wave MI; test: Dose ranging study in unstable angina: primary efficacy evaluation (composite of death, AMI, recurrent ischemia); format: in vivo, human; conditions: for AMI n (%) / Composite endpoint n (%) / Death (not related to bleeding) n (%) / Recurrent ischemia n (%) (Mortara data) / Symptomatic recurrent ischemia n (%): first active injection to Day 9, per protocol excluding insufficient Mortara data
Experimental: as §1
The primary efficacy endpoint consisted of the composite of the following ischeric events starting from first active drug administration up to and including Day 9 (with Day 1 being the day of first active drug administration):
Death from any cause except for death related to bleeding
Acute myocardial infarction (AMI), according to the definition in the protocol
Symptomatic recurrent ischemia (excluding episodes of ischemia during or at any time after CABG (Coronary Artery Bypass Graft) or PTCA (Percutaneous Transluminal Coronary Angioplasty)) or any ischemia on the 48-h continuous 12-lead ECG monitoring (Mortara).
In the event a patient experienced one of these events, the binary composite outcome was regarded as a treatment failure. In contrast, if none of the above events applied, the composite ischemic outcome was considered as a treatment success.
as §2

[4] = tested on: patients with unstable angina/non Q-wave MI; test: Dose ranging study: safety analysis, deaths; format: in vivo, human; conditions: for Patients with SAE from First injection Leading to death after day 30 / Patients with SAE from First injection Leading to death between first injection and day 30 / Total deaths reported: all treated patients; for Total deaths reported: first active injection onwards
Experimental: as §1
Other safety endpoints include deaths and all adverse events (latter not reported here).
as §3

Structure (SMILES): CO[C@H]1O[C@H](COS(=O)(=O)O)[C@@H](O[C@@H]2O[C@@H](C(=O)O)[C@@H](O[C@H]3O[C@H](COS(=O)(=O)O)[C@@H](O[C@@H]4O[C@H](C(=O)O)[C@@H](O[C@H]5O[C@H](COS(=O)(=O)O)[C@@H](O)[C@H](O)[C@H]5NS(=O)(=O)O)[C@H](O)[C@H]4O)[C@H](OS(=O)(=O)O)[C@H]3NS(=O)(=O)O)[C@H](O)[C@H]2OS(=O)(=O)O)[C@H](O)[C@H]1NS(=O)(=O)O [Fondaparinux sodium, methyl O-(2-deoxy-2-sulfoamino-6-O-sulfo-α-D-glucopyranosyl)-(1→4)-O-(β-D-glucopyranosyluronic acid)-(1→4)-O-(2-deoxy-2-sulfoamino-3,6-di-O-sulfo-α-D-glucopyranosyl)-(1→4)-O-(2-O-sulfo-α-L-idopyranosyluronic acid)-(1→4)-2-deoxy-2-sulfoamino-6-O-sulfo-α-D-glucopyranoside]
- AMI ([1]; 2.5 mg daily (N = 210)): 1 (0.5%) n (%)
- Death (not related to bleeding) ([1]; 2.5 mg daily (N = 210)): 2 (1.0%) n (%)
- Death or AMI ([1]; 2.5 mg daily (N = 210)): 3 (1.4%) n (%)
- Death or AMI or recurrent ischemia (Symptomatic) ([1]; 2.5 mg daily (N = 210)): 27 (12.9%) n (%)
- Recurrent Ischemia (Symptomatic) ([1]; 2.5 mg daily (N = 210)): 26 (12.4%) n (%)
- death or AMI compared with the other fondaparinux sodium groups ([1]; 2.5 mg group): fewer patients tended to experience death or AMI
- AMI ([1]; 4 mg daily (N = 185)): 3 (1.6%) n (%)
- Death (not related to bleeding) ([1]; 4 mg daily (N = 185)): 5 (2.7%) n (%)
- Death or AMI ([1]; 4 mg daily (N = 185)): 8 (4.3%) n (%)
- Death or AMI or recurrent ischemia (Symptomatic) ([1]; 4 mg daily (N = 185)): 39 (21.1%) n (%)
- Recurrent Ischemia (Symptomatic) ([1]; 4 mg daily (N = 185)): 33 (17.8%) n (%)
- AMI ([1]; 8 mg daily (N = 183)): 5 (2.7%) n (%)
- Death (not related to bleeding) ([1]; 8 mg daily (N = 183)): 1 (0.5%) n (%)
- Death or AMI ([1]; 8 mg daily (N = 183)): 6 (3.3%) n (%)
- Death or AMI or recurrent ischemia (Symptomatic) ([1]; 8 mg daily (N = 183)): 33 (18.0%) n (%)
- Recurrent Ischemia (Symptomatic) ([1]; 8 mg daily (N = 183)): 29 (15.8%) n (%)
- AMI ([1]; 12 mg daily (N = 199)): 4 (2.0%) n (%)
- Death (not related to bleeding) ([1]; 12 mg daily (N = 199)): 1 (0.5%) n (%)
- Death or AMI ([1]; 12 mg daily (N = 199)): 5 (2.5%) n (%)
- Death or AMI or recurrent ischemia (Symptomatic) ([1]; 12 mg daily (N = 199)): 30 (15.1%) n (%)
- Recurrent Ischemia (Symptomatic) ([1]; 12 mg daily (N = 199)): 28 (14.1%) n (%)
- Any bleeding event n (%) ([2]; 2.5 mg daily (N = 229)): 9 (3.9%) n (%)
- Major bleeding event n (%) ([2]; 2.5 mg daily (N = 229)): 0 (0.0%) n (%)
- Minor bleeding event n (%) ([2]; 2.5 mg daily (N = 229)): 9 (3.9%) n (%)
- major bleedings observed ([2]; 2.5 mg group): No major bleedings were observed
- Any bleeding event n (%) ([2]; 4 mg daily (N = 222)): 12 (5.4%) n (%)
- Major bleeding event n (%) ([2]; 4 mg daily (N = 222)): 3 (1.4%) n (%)
- Minor bleeding event n (%) ([2]; 4 mg daily (N = 222)): 9 (4.1%) n (%)
- Any bleeding event n (%) ([2]; 8 mg daily (N = 223)): 12 (5.4%) n (%)
- Major bleeding event n (%) ([2]; 8 mg daily (N = 223)): 4 (1.8%) n (%)
- Minor bleeding event n (%) ([2]; 8 mg daily (N = 223)): 9 (4.0%) n (%)
- Any bleeding event n (%) ([2]; 12 mg daily (N = 238)): 11 (4.6%) n (%)
- Major bleeding event n (%) ([2]; 12 mg daily (N = 238)): 1 (0.4%) n (%)
- Minor bleeding event n (%) ([2]; 12 mg daily (N = 238)): 10 (4.2%) n (%)
- differences between fondaparinux sodium groups and the enoxaparin group for safety parameters ([2]; all dose groups): No significant differences
- differences between treatment groups for major, minor or any bleeding ([2]; all dose groups vs enoxaparin): No relevant differences
- AMI n (%) ([3]; 2.5 mg daily (N = 203)): 1 (0.5%) n (%)
- Composite endpoint n (%) ([3]; 2.5 mg daily (N = 203)): 61 (30.0%) n (%)
- Death (not related to bleeding) n (%) ([3]; 2.5 mg daily (N = 203)): 2 (1.0%) n (%)
- Recurrent ischemia n (%) (Mortara data) ([3]; 2.5 mg daily (N = 203)): 47 (23.2%) n (%)
- Symptomatic recurrent ischemia n (%) ([3]; 2.5 mg daily (N = 203)): 26 (12.8%) n (%)
- AMI n (%) ([3]; 4 mg daily (N = 177)): 3 (1.7%) n (%)
- Composite endpoint n (%) ([3]; 4 mg daily (N = 177)): 77 (43.5%) n (%)
- Death (not related to bleeding) n (%) ([3]; 4 mg daily (N = 177)): 5 (2.8%) n (%)
- Recurrent ischemia n (%) (Mortara data) ([3]; 4 mg daily (N = 177)): 63 (35.6%) n (%)
- Symptomatic recurrent ischemia n (%) ([3]; 4 mg daily (N = 177)): 33 (18.6%) n (%)
- AMI n (%) ([3]; 8 mg daily (N = 173)): 5 (2.9%) n (%)
- Composite endpoint n (%) ([3]; 8 mg daily (N = 173)): 71 (41.0%) n (%)
- Death (not related to bleeding) n (%) ([3]; 8 mg daily (N = 173)): 1 (0.6%) n (%)
- Recurrent ischemia n (%) (Mortara data) ([3]; 8 mg daily (N = 173)): 55 (31.8%) n (%)
- Symptomatic recurrent ischemia n (%) ([3]; 8 mg daily (N = 173)): 29 (16.8%) n (%)
- AMI n (%) ([3]; 12 mg daily (N = 187)): 4 (2.1%) n (%)
- Composite endpoint n (%) ([3]; 12 mg daily (N = 187)): 65 (34.8 %) n (%)
- Death (not related to bleeding) n (%) ([3]; 12 mg daily (N = 187)): 1 (0.5%) n (%)
- Recurrent ischemia n (%) (Mortara data) ([3]; 12 mg daily (N = 187)): 56 (29.9%) n (%)
- Symptomatic recurrent ischemia n (%) ([3]; 12 mg daily (N = 187)): 28 (15.0%) n (%)
- AMI n (%) ([3]; All doses pooled (N = 740)): 13 (1.8%) n (%)
- Composite endpoint n (%) ([3]; All doses pooled (N = 740)): 274 (37.0%) n (%)
- Death (not related to bleeding) n (%) ([3]; All doses pooled (N = 740)): 9 (1.2%) n (%)
- Recurrent ischemia n (%) (Mortara data) ([3]; All doses pooled (N = 740)): 221 (29.9%) n (%)
- Symptomatic recurrent ischemia n (%) ([3]; All doses pooled (N = 740)): 116 (15.7%) n (%)
- efficacy compared with enoxaparin 1 mg/Kg bid ([3]; all fondaparinux sodium doses): at least as effective as enoxaparin
- incidence of the composite endpoint ([3]; all fondaparinux sodium groups pooled): 37.0%
- dose-response for the primary endpoint ([3]; four fondaparinux sodium groups (2.5, 4.0, 8.0, 12.0 mg)): No dose-response
- Patients with SAE from First injection Leading to death after day 30 ([4]; 2.5 mg daily (N = 229)): 1 (0.4%) Number (%)
- Patients with SAE from First injection Leading to death between first injection and day 30 ([4]; 2.5 mg daily (N = 229)): 3 (1.3%) Number (%)
- Total deaths reported ([4]; 2.5 mg daily (N = 229)): 4 (1.7%) Number (%)
- Patients with SAE from First injection Leading to death after day 30 ([4]; 4 mg daily (N = 222)): 3 (1.4%) Number (%)
- Patients with SAE from First injection Leading to death between first injection and day 30 ([4]; 4 mg daily (N = 222)): 7 (3.2%) Number (%)
- Total deaths reported ([4]; 4 mg daily (N = 222)): 10 (4.5%) Number (%)
- Patients with SAE from First injection Leading to death after day 30 ([4]; 8 mg daily (N = 223)): 2 (0.9%) Number (%)
- Patients with SAE from First injection Leading to death between first injection and day 30 ([4]; 8 mg daily (N = 223)): 4 (1.8%) Number (%)
- Total deaths reported ([4]; 8 mg daily (N = 223)): 6 (2.7%) Number (%)
- Patients with SAE from First injection Leading to death after day 30 ([4]; 12 mg daily (N = 238)): 1 (0.4%) Number (%)
- Patients with SAE from First injection Leading to death between first injection and day 30 ([4]; 12 mg daily (N = 238)): 6 (2.5%) Number (%)
- Total deaths reported ([4]; 12 mg daily (N = 238)): 7 (2.9%) Number (%)
- differences in the percentage of deaths between treatment groups ([4]; all dose groups vs enoxaparin): No relevant differences

Reference: patent publication US20040248848A1, “Use of specific dose of fondaparinux sodium for the treatment of acs” (priority 2004, published 2004)
